In US7645779B2, “Linked biaryl compounds” (Amgen Inc., priority 2001, dated 2010):

These compounds were tested on High Cholesterol Fed Rats (assay: HDL Cholesterol Assay in High Cholesterol Fed Rats). Settings: Rattus norvegicus, 168 h, oral once a day over the final 7 days of a 14-day high cholesterol diet, HDL increase relative to the vehicle, read-out: Serum HDL cholesterol levels (% of increase) at 30 mg/kg.
Type: in vivo, Male Sprague-Dawley rats
Description: HDL Cholesterol Assay in High Cholesterol Fed Rats
Male Sprague-Dawley rats (BW: 100-120 g) were fed a high cholesterol diet (1.25% cholesterol, 0.5% cholic acid and 10% coconut oil) for 14 days. The animals were orally dosed with test compounds suspended to 0.5% methylcellulose solution once a day over the final 7 days. Typical doses of test compounds were 1-30 mg/kg/day.
After 7 days of treatment, serum HDL cholesterol concentration was determined from blood obtained by tail bleeds. HDL cholesterol determination was performed on a Hitachi 7170 automatic analyzer.
Serum HDL cholesterol level (% of increase) refers to the rate of HDL increase relative to the vehicle and was calculated as follows: […]

Row | Structure (SMILES) | change in vivo at 30 mg/kg [%]
1 | O=C(O)COc1ccc(Sc2ccc(CNc3ccc(C(F)(F)F)cc3)cc2Cl)c2c1CCCC2 [Compound 22, (4-{2-chloro-4-[(4-trifluoromethyl-phenylamino)-methyl]-phenylsulfanyl}-5,6,7,8-tetrahydro-naphthalen-1-yloxy)-acetic acid] | ≤ 100
2 | Cc1cc(S(=O)(=O)c2ccc(OCc3ccc(C(F)(F)F)cc3)cc2C)ccc1OCC(=O)O [Compound 5, 4-[[2-methyl-4-(4-trifluoromethyl-benzyloxy)phenyl]sulfonyl]-2-methylphenoxy-acetic acid] | ≤ 100
3 | Cc1cc(Sc2ccc(CNc3ccc(C(F)(F)F)cc3)cc2C)c(C)cc1OCC(=O)O [Compound 21, 2,5-dimethyl-4-[[2-methyl-4-[(4-trifluoromethyl-phenylamino)methyl]phenyl]sulfanyl]phenoxy-acetic acid] | > 100
4 | Cc1cc(COc2ccc(C(F)(F)F)cc2)ccc1Sc1ccc(OCC(=O)O)cc1C [Compound 11] | > 100
5 | Cc1cc(Sc2ccc(OCc3ccc(C(F)(F)F)cc3)c(C)c2)ccc1OCC(=O)O [Compound 1, {2-methyl-4-[3-methyl-4-(4-trifluoromethyl-benzyloxy)-phenylsulfanyl]-phenoxy}-acetic acid] | > 100
6 | Cc1cc(Sc2ccc(COc3ccc(C(F)(F)F)cc3)cc2)ccc1OCC(=O)O [Compound 7, 4-[[4-[(4-trifluoromethylphenoxy)methyl]phenyl]sulfanyl]-2-methylphenoxy-acetic acid] | ≤ 100
7 | Cc1cc(Sc2ccc(OCC(=O)O)c3ccccc23)ccc1OCc1ccc(C(F)(F)F)cc1 [Compound 9] | ≤ 100
8 | Cc1cc(Sc2ccc(OCc3ccc(C(F)(F)F)cc3)cc2)ccc1OCC(=O)O [Compound 8] | > 100
9 | CCCc1cc(Sc2ccc(OCc3ccc(C(F)(F)F)cc3)c(C)c2)ccc1OCC(=O)O [Compound 4, 4-[[3-methyl-4-(4-trifluoromethyl-benzyloxy)phenyl]sulfanyl]-2-propylphenoxy-acetic acid] | > 100
10 | Cc1cc(Sc2ccc(COc3ccc(C(F)(F)F)cc3)cc2Cl)ccc1OCC(=O)O [Compound 10, 4-[[2-chloro-4-[(4-trifluoromethylphenoxy)methyl]phenyl]sulfanyl]-2-methylphenoxy-acetic acid] | ≤ 100
